Results on 4 molecules are retold here after patent publication US4735949A, “Disubstituted-7-pyrrolidinonaphthyridine antibacterial agents” (Warner-Lambert Company, priority 1987, dated 1988).

Common to all, as to experiment: in vitro antibacterial activity, microtitration dilution method
Holding throughout (format): cell-based

The subject of assay [1] is Enterobacter cloacae MA 2646. The text has this: (§1) Agents & Chemoth., 6, 124 (1974), which is incorporated herein by reference.
The next assay concerns Escherichia coli Vogel. To be noted: read-out: Minimal Inhibitory Concentration MIC.
Description: as §1

The test system of assay [2] is Klebsiella pneumoniae MGH-2.
Description: as §1

The subject of the next assay is Proteus rettgeri M 1771. To be noted: Providencia rettgeri.
Description: as §1

For assay [3], the system named is Pseudomonas aeruginosa UI-18. To be noted: UI18; Pseudomonas aeruginosa UI-18, in vitro; read-out: Minimal Inhibitory Concentration MIC.
Description: as §1

Assay [4] relates to Staphylococcus aureus H 228. As to conditions: H228; Staphylococcus aureus H 228, in vitro; read-out: Minimal Inhibitory Concentration MIC. The text has this:
(§2) The compounds of the invention display antibacterial activity when tested by the microtitration dilution method as described in Heifetz, et al, Antimicr. Agents & Chemoth., 6, 124 (1974), which is incorporated herein by reference.
(§3) By use of the above referenced method, the following minimum inhibitory concentration values (MICs in μg/ml) were obtained for representative compounds of the invention.

The subject of assay [5] is Staphylococcus aureus UC-76. To be noted: UC76; Staphylococcus aureus UC-76, in vitro; read-out: Minimal Inhibitory Concentration MIC.
Description: as §2, §3

Assay [6] concerns Streptococcus faecalis MGH-2. To be noted: Enterococcus faecalis, MGH2; Streptococcus faecalis MGH-2, in vitro; read-out: Minimal Inhibitory Concentration MIC.
Description: as §2, §3

Assay [7] has as its system Streptococcus pneumoniae SV-1. As to conditions: SV1; Streptococcus pneumoniae SV-1, in vitro; read-out: Minimal Inhibitory Concentration MIC.
Description: as §2, §3

Assay [8] deals with Streptococcus pyogenes C-203. To be noted: C203; Streptococcus pyogenes C-203, in vitro; read-out: Minimal Inhibitory Concentration MIC.
Description: as §2, §3

[9] abbreviates: MA2646, Enterobacter cloacae MA 2646, in vitro, read-out: Minimal Inhibitory Concentration MIC.
The mark [10] stands for this setting: M1771, Proteus rettgeri M 1771, in vitro, read-out: Minimal Inhibitory Concentration MIC.
Where [11] appears, read: Klebsiella pneumoniae, MGH2, read-out: Minimal Inhibitory Concentration MIC.
Where [12] appears, read: M1771, read-out: Minimal Inhibitory Concentration MIC.

≈ marks a conversion by molar mass, not a printed value. Read-outs that look alike come from different tables or passages of the source.

With `NC1CN(c2c(F)cc3c(=O)c(C(=O)O)cn(C4CC4)c3c2F)CC1c1ccccc1` (centres unmarked) [Example 3, 7-[(3-Amino-4-phenyl)-1-pyrrolidinyl]-1-cyclopropyl-6,8-difluoro-1,4-dihydro-4-oxo-3-quinolinecarboxylic acid], the MIC is 0.2 µg/mL (≈ 0.47 µM) in assay [1] (setting [9]); 0.1 µg/mL (≈ 0.235 µM) in the assay on Escherichia coli Vogel; 0.2 µg/mL (≈ 0.47 µM) in assay [2] (MGH2, Klebsiella pneumoniae MGH-2, in vitro, read-out: Minimal Inhibitory Concentration MIC); 0.4 µg/mL (≈ 0.94 µM) in the assay on Proteus rettgeri M 1771 (setting [10]); 1.6 µg/mL (≈ 3.76 µM) in [3]; 0.05 µg/mL (≈ 0.118 µM) in [4]. The MIC in [5] was determined as 0.025 µg/mL (≈ 0.0588 µM); in assay [6], 0.1 µg/mL (≈ 0.235 µM); in assay [7], 0.1 µg/mL (≈ 0.235 µM); in [8] it was 0.1 µg/mL (≈ 0.235 µM).

For the molecule `NCC1CN(c2c(F)cc3c(=O)c(C(=O)O)cn(C4CC4)c3c2F)CC1c1ccccc1` (centres unmarked) [Example 2], the MIC is 0.2 µg/mL (≈ 0.455 µM) in assay [1] (setting [9]); 0.1 µg/mL (≈ 0.228 µM) in assay [2] (setting [11]); 0.4 µg/mL (≈ 0.91 µM) in the assay on Proteus rettgeri M 1771 (setting [10]); 1.6 µg/mL (≈ 3.64 µM) in assay [3]; 0.013 µg/mL (≈ 0.0296 µM) in assay [4]; 0.006 µg/mL (≈ 0.0137 µM) in [5]. The MIC stood at 0.013 µg/mL (≈ 0.0296 µM) in [6], 0.006 µg/mL (≈ 0.0137 µM) in [7] and 0.013 µg/mL (≈ 0.0296 µM) in [8].

Regarding `O=C(O)c1cn(C2CC2)c2c(F)c(N3CCC(O)(c4ccccc4)C3)c(F)cc2c1=O` (centres unmarked) [Example 4, 1-Cyclopropyl-6,8-difluoro-1,4-dihydro-7-[(3-hydroxy-3-phenyl)1-pyrrolidinyl]-4-oxo-3-quinolinecarboxylic acid], the MIC was found to be 0.1 µg/mL (≈ 0.235 µM) in assay [2] (setting [11]); 0.1 µg/mL (≈ 0.235 µM) with Proteus rettgeri M 1771 (setting [12]); 0.003 µg/mL (≈ 0.00704 µM) in assay [4]; 0.003 µg/mL (≈ 0.00704 µM) in assay [5]; 0.025 µg/mL (≈ 0.0586 µM) in assay [6]; 0.013 µg/mL (≈ 0.0305 µM) in [7]. Further, in assay [8], the MIC stood at 0.05 µg/mL (≈ 0.117 µM).

Regarding `NC1(c2ccccc2)CCN(c2c(F)cc3c(=O)c(C(=O)O)cn(C4CC4)c3c2F)C1` (centres unmarked) [Example 1, 7-[(3-Amino-3-phenyl)-1-pyrrolidinyl]-1-cyclopropyl-6,8-difluoro-1,4-dihydro-4-oxo-3-quinolinecarboxylic acid], the MIC amounted to 0.05 µg/mL (≈ 0.118 µM) in assay [1] (Enterobacter cloacae, MA2646, read-out: Minimal Inhibitory Concentration MIC); 0.05 µg/mL (≈ 0.118 µM) with Escherichia coli Vogel; 0.1 µg/mL (≈ 0.235 µM) in assay [2] (setting [11]); 0.1 µg/mL (≈ 0.235 µM) with Proteus rettgeri M 1771 (setting [12]); 0.006 µg/mL (≈ 0.0141 µM) in [4]; 0.006 µg/mL (≈ 0.0141 µM) in assay [5]. In addition, the MIC was 0.05 µg/mL (≈ 0.118 µM) in assay [6], 0.025 µg/mL (≈ 0.0588 µM) in assay [7] and 0.05 µg/mL (≈ 0.118 µM) in [8].
